Results: patent publication US20260354383A1, “AN HERBICIDAL COMBINATION, COMPOSITION AND METHOD OF CONTROLLING WEEDS USING THE SAME” (UPL Mauritius Limited, priority 2022, published 2026)

Columns and labels:
[1] = tested on: Viola arvensis, Bromus spp., Lolium spp., Agropyron repens and Urtica urens; details: Hoechst et al., 1991; cited from earlier work
Spermacoce latifolia = test: Post-emergence herbicidal activity (greenhouse), Spermacoce latifolia, Example 3; format: in vivo; details: 7 DAA
Experimental: (§1) The expected efficacy of a combination of L-glufosinate ammonium and the other herbicides was calculated using the well-established Colby method. Any difference between the observed and “expected” efficacy could be attributed to synergy between the two compounds.
In the Colby method, the expected (or predicted) response of a combination of herbicides is calculated by taking the product of the observed response for each individual component of the combination when applied alone, divided by 100, and subtracting this value from the sum of the observed response for each component when applied alone. An unexpected enhancement in efficacy of the combination is then determined by comparing the observed response of the combination to the expected (or predicted) response as calculated from the observed response of each individual component alone. If the observed response of the combination is greater than the expected (or predicted) response, or stated conversely, if the difference between the observed and expected response is greater than zero, then the combination is said to be synergistic or unexpectedly effective (Colby, S. R., Weeds, 1967(15), p. 20-22). […]
The percentage efficacy was calculated after 7 days of application (DAA). The target weed was Spermacoce latifolia, and the concentration of the herbicide and the results are recorded in the Table 3.

Brachiaria decumbens = test: Post-emergence herbicidal activity (greenhouse), Brachiaria decumbens, Example 2; format: in vivo; details: L-glufosinate ammonium 150, clethodim 45 g a.i./ha
Experimental: as §1
(§2) In the Colby method, the expected (or predicted) response of a combination of herbicides is calculated by taking the product of the observed response for each individual component of the combination when applied alone, divided by 100, and subtracting this value from the sum of the observed response for each component when applied alone. An unexpected enhancement in efficacy of the combination is then determined by comparing the observed response of the combination to the expected (or predicted) response as calculated from the observed response of each individual component alone. If the observed response of the combination is greater than the expected (or predicted) response, or stated conversely, if the difference between the observed and expected response is greater than zero, then the combination is said to be synergistic or unexpectedly effective (Colby, S. R., Weeds, 1967(15), p. 20-22). The Colby method requires only a single dose of each herbicide applied alone and the mixture of both doses. The formula used to calculate the expected efficacy (EE) which was compared with the observed efficacy (OE) to determine the efficacy of the present disclosure is explained hereinbelow:
(§3) The expected efficacy for a combination of two active ingredients is as follows:
(§4) Evaluation of Post-Emergence Herbicidal Activity
(§5) Methodology: Greenhouse trials were conducted to evaluate the efficacy of the combination comprising L-glufosinate ammonium and clethodim on weeds Eleusine indica, Brachiaria decumbens, Spermacoce latifolia and weedy Glycine max.
(§6) The soil used was sandy clay loam—sand: 68.0%; silt: 8.0%; clay: 24.0%.
(§7) All treatments were in 3 replications per treatment with a spray volume of about 150 L/ha.
Example 2: Efficacy of L-Glufosinate Ammonium and Clethodim on Brachiaria decumbens
The percentage efficacy was calculated after 7, 14, 21, 28 and 35 days of application (DAA). The target weed was Brachiaria decumbens, and the concentration of the herbicides and the results are recorded in the Table 2.

Eleusine indica = test: Post-emergence herbicidal activity (greenhouse), Eleusine indica, Example 1; format: in vivo; details: L-glufosinate ammonium 150
Experimental: as §1, §2, §3, §4, §5, §6, §7
Example 1: Efficacy of L-Glufosinate Ammonium and Clethodim on Eleusine indica
The percentage efficacy was calculated after 3, 7, 28 and 35 days of application (DAA). The target weed was Eleusine indica, and the concentration of the herbicide and the results are recorded in the Table 1.

weedy Glycine max = test: Post-emergence herbicidal activity (greenhouse), weedy Glycine max, Example 4; format: in vivo; details: L-glufosinate ammonium 150
Experimental: as §1, §2, §3, §4, §5, §6, §7
Example 4: Efficacy of L-Glufosinate Ammonium and Clethodim on Weedy Glycine max
The percentage efficacy was calculated after 3, 7, 14, 21, 28 and 35 days of application (DAA). The target weed was weedy Glycine max, and the concentration of the herbicide and the results are recorded in the Table 4.

[2] = cited from earlier work

Compound: CP(=O)(O)CCC(N)C(=O)O (racemic) [Glufosinate, DL-homoalanin-4-yl(methyl)phosphinic acid]
- weed species either not combated, or only weakly combated [1]: either not combated, or only weakly combated

Compound: CCSC(C)CC1CC(=O)C(/C(CC)=N/OC/C=C/Cl)=C(O)C1 (stereo not drawn) [Clethodim, clethodim]
- % Control (Spermacoce latifolia): 3%
- % Control (Brachiaria decumbens; 7 DAA): 15%
- % Control (Brachiaria decumbens; 14 DAA): 55%
- % Control (Brachiaria decumbens; 21 DAA): 65%
- % Control (Brachiaria decumbens; 28 DAA): 75%
- % Control (Brachiaria decumbens; 35 DAA): 71%
- % Control (Eleusine indica; 3 DAA): 6.7%
- % Control (Eleusine indica; 7 DAA): 15%
- % Control (Eleusine indica; 28 DAA): 81.7%
- % Control (Eleusine indica; 35 DAA): 84.3%
- % Control (weedy Glycine max; 3 DAA): 0%
- % Control (weedy Glycine max; 7 DAA): 0%
- % Control (weedy Glycine max; 14 DAA): 0%
- % Control (weedy Glycine max; 21 DAA): 0%
- % Control (weedy Glycine max; 28 DAA): 0%
- % Control (weedy Glycine max; 35 DAA): 0%

Compound: CP(=O)(O)CC[C@H](N)C(=O)O [L-Glufosinate, (S)-2-amino-4-(hydroxy(methyl)phosphonoyl)butanoic acid]
- herbicidal activity relative to glyphosate ([2]; vs glyphosate): about four times that of glyphosate
- herbicidal activity relative to paraquat ([2]; vs paraquat): about twice that of paraquat
- herbicidal activity relative to racemic glufosinate (DL-glufosinate) ([2]; vs racemic glufosinate): more than about twice that of racemic glufosinate

Compound: CP(=O)(O)CC[C@H](N)C(=O)O.N [L-glufosinate ammonium, ammonium (2S)-2-amino-4-(methylphosphinato)butyric acid]
- % Control (Spermacoce latifolia): 31.7%
- % Control (Brachiaria decumbens; 7 DAA): 50%
- % Control (Brachiaria decumbens; 14 DAA): 79.3%
- % Control (Brachiaria decumbens; 21 DAA): 82%
- % Control (Brachiaria decumbens; 28 DAA): 79.3%
- % Control (Brachiaria decumbens; 35 DAA): 79.3%
- % Control (Eleusine indica; 3 DAA): 12.3%
- % Control (Eleusine indica; 7 DAA): 50.7%
- % Control (Eleusine indica; 28 DAA): 59.3%
- % Control (Eleusine indica; 35 DAA): 54.3%
- % Control (weedy Glycine max; 3 DAA): 15%
- % Control (weedy Glycine max; 7 DAA): 53.3%
- % Control (weedy Glycine max; 14 DAA): 71%
- % Control (weedy Glycine max; 21 DAA): 66.7%
- % Control (weedy Glycine max; 28 DAA): 56.7%
- % Control (weedy Glycine max; 35 DAA): 41.7%
